Laboratory results published in PubChem BioAssay AID2060623 (Molecular Pharmacology Branch, DTP, NCI, 2025).

Tested on: 227483-062-R1-J1-PDC complex spheroids with HUVEC/MSC, viability
Assay: Anticancer human tumor 227483-062-R1-J1-PDC patient-derived pancreatic carcinoma cell line growth inhibition [CLK]
Settings: for IC50: curve of first compound; for viability, T/C: stronger effect = lower value
Outline: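 Multi-cell-type spheroids combined patient-derived tumor cells with HUVEC endothelial cells and human mesenchymal stem cells. Paired agents were dosed in half-log steps down from about clinical Cmax, or from 10 microM where Cmax was unknown.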
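Also: spheroids exposed to compounds for seven days before readout.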
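For viability, T/C in this document: percent of DMSO vehicle control luminescence as 100% viability.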

`CC1COCCN1c1cc(C2(S(C)(=N)=O)CC2)nc(-c2ccnc3[nH]ccc23)n1` (centres undefined) + CN1CCN(c2cc(C(=O)Nc3cc4cc(-c5cnn(C)c5)ccc4cn3)ccn2)CC1 was tested, and the IC50 (second compound 0.0316 µM) was 8890 nM, the IC50 (second compound 0.1 µM) was 1120 nM and the IC50 (second compound 0.316 µM) was less than 31.6 nM. For the same compound, the IC50 (second compound 1 µM) was less than 31.6 nM, the IC50 (second compound 3.16 µM) was less than 31.6 nM and the IC50 (second compound 10 µM) was less than 31.6 nM. For the same compound, the viability, T/C (second compound 0.0316 µM, first compound 0.0316 µM) was 82.8%, the viability, T/C (second compound 0.0316 µM, first compound 0.1 µM) was 98.1% and the viability, T/C (second compound 0.0316 µM, first compound 0.316 µM) was 93.7%. The viability, T/C (second compound 0.0316 µM, first compound 1 µM) was 84.6%, the viability, T/C (second compound 0.0316 µM, first compound 3.16 µM) was 85.3% and the viability, T/C (second compound 0.0316 µM, first compound 10 µM) was 45.8%. It also gave a viability, T/C (second compound 0.1 µM, first compound 0.0316 µM) of 60.5%, a viability, T/C (second compound 0.1 µM, first compound 0.1 µM) of 74.2% and a viability, T/C (second compound 0.1 µM, first compound 0.316 µM) of 60.2%. It also gave a viability, T/C (second compound 0.1 µM, first compound 1 µM) of 51.9%, a viability, T/C (second compound 0.1 µM, first compound 3.16 µM) of 33.3% and a viability, T/C (second compound 0.1 µM, first compound 10 µM) of 21.7%. For the same compound, the viability, T/C (second compound 0.316 µM, first compound 0.0316 µM) was 6.08%, the viability, T/C (second compound 0.316 µM, first compound 0.1 µM) was 4.49% and the viability, T/C (second compound 0.316 µM, first compound 0.316 µM) was 4.56%. For the same compound, the viability, T/C (second compound 0.316 µM, first compound 1 µM) was 4.4%, the viability, T/C (second compound 0.316 µM, first compound 3.16 µM) was 6.8% and the viability, T/C (second compound 0.316 µM, first compound 10 µM) was 2.88%. For the same compound, the viability, T/C (second compound 1 µM, first compound 0.0316 µM) was 1.88%, the viability, T/C (second compound 1 µM, first compound 0.1 µM) was 2.55% and the viability, T/C (second compound 1 µM, first compound 0.316 µM) was 1.66%. For the same compound, the viability, T/C (second compound 1 µM, first compound 1 µM) was 3.91%, the viability, T/C (second compound 1 µM, first compound 3.16 µM) was 2.05% and the viability, T/C (second compound 1 µM, first compound 10 µM) was 1.59%. The viability, T/C (second compound 3.16 µM, first compound 0.0316 µM) was 4.44%, the viability, T/C (second compound 3.16 µM, first compound 0.1 µM) was 3.71% and the viability, T/C (second compound 3.16 µM, first compound 0.316 µM) was 4.61%. The viability, T/C (second compound 3.16 µM, first compound 1 µM) was 3.67%, the viability, T/C (second compound 3.16 µM, first compound 3.16 µM) was 2.93% and the viability, T/C (second compound 3.16 µM, first compound 10 µM) was 2.93%. For the same compound, the viability, T/C (second compound 10 µM, first compound 0.0316 µM) was 3.62%, the viability, T/C (second compound 10 µM, first compound 0.1 µM) was 2.17% and the viability, T/C (second compound 10 µM, first compound 0.316 µM) was 2.15%. It also gave a viability, T/C (second compound 10 µM, first compound 1 µM) of 1.98%, a viability, T/C (second compound 10 µM, first compound 3.16 µM) of 2.16% and a viability, T/C (second compound 10 µM, first compound 10 µM) of 3.07%.

Work on `NC(=O)C(=Cn1cnc(-c2cc(C(F)(F)F)cc(C(F)(F)F)c2)n1)c1cncnc1` + CN1CCN(c2cc(C(=O)Nc3cc4cc(-c5cnn(C)c5)ccc4cn3)ccn2)CC1 yielded an IC50 (second compound 0.0316 µM) of 387 nM, an IC50 (second compound 0.1 µM) of 62.1 nM and an IC50 (second compound 0.316 µM) of less than 9.49 nM. It also gave an IC50 (second compound 1 µM) of less than 9.49 nM, an IC50 (second compound 3.16 µM) of less than 9.49 nM and an IC50 (second compound 10 µM) of less than 9.49 nM. It also gave a viability, T/C (second compound 0.0316 µM, first compound 0.00949 µM) of 83.4%, a viability, T/C (second compound 0.0316 µM, first compound 0.03 µM) of 105% and a viability, T/C (second compound 0.0316 µM, first compound 0.0949 µM) of 78.6%. It also gave a viability, T/C (second compound 0.0316 µM, first compound 0.3 µM) of 60.6%, a viability, T/C (second compound 0.0316 µM, first compound 0.949 µM) of 18.8% and a viability, T/C (second compound 0.0316 µM, first compound 3 µM) of 5.44%. The viability, T/C (second compound 0.1 µM, first compound 0.00949 µM) was 69.7%, the viability, T/C (second compound 0.1 µM, first compound 0.03 µM) was 76.6% and the viability, T/C (second compound 0.1 µM, first compound 0.0949 µM) was 35.9%. It also gave a viability, T/C (second compound 0.1 µM, first compound 0.3 µM) of 13.9%, a viability, T/C (second compound 0.1 µM, first compound 0.949 µM) of 3.19% and a viability, T/C (second compound 0.1 µM, first compound 3 µM) of 1.66%. It also gave a viability, T/C (second compound 0.316 µM, first compound 0.00949 µM) of 3.14%, a viability, T/C (second compound 0.316 µM, first compound 0.03 µM) of 3.15% and a viability, T/C (second compound 0.316 µM, first compound 0.0949 µM) of 1.63%. For the same compound, the viability, T/C (second compound 0.316 µM, first compound 0.3 µM) was 1.68%, the viability, T/C (second compound 0.316 µM, first compound 0.949 µM) was 1.4% and the viability, T/C (second compound 0.316 µM, first compound 3 µM) was 1.39%. The viability, T/C (second compound 1 µM, first compound 0.00949 µM) was 1.5%, the viability, T/C (second compound 1 µM, first compound 0.03 µM) was 1.97% and the viability, T/C (second compound 1 µM, first compound 0.0949 µM) was 1.83%. It also gave a viability, T/C (second compound 1 µM, first compound 0.3 µM) of 2.32%, a viability, T/C (second compound 1 µM, first compound 0.949 µM) of 2.43% and a viability, T/C (second compound 1 µM, first compound 3 µM) of 2.17%. The viability, T/C (second compound 3.16 µM, first compound 0.00949 µM) was 1.89%, the viability, T/C (second compound 3.16 µM, first compound 0.03 µM) was 3.42% and the viability, T/C (second compound 3.16 µM, first compound 0.0949 µM) was 3.73%. For the same compound, the viability, T/C (second compound 3.16 µM, first compound 0.3 µM) was 5.05%, the viability, T/C (second compound 3.16 µM, first compound 0.949 µM) was 3.43% and the viability, T/C (second compound 3.16 µM, first compound 3 µM) was 3.12%. It also gave a viability, T/C (second compound 10 µM, first compound 0.00949 µM) of 1.57%, a viability, T/C (second compound 10 µM, first compound 0.03 µM) of 2.14% and a viability, T/C (second compound 10 µM, first compound 0.0949 µM) of 2.32%. It also gave a viability, T/C (second compound 10 µM, first compound 0.3 µM) of 2.15%, a viability, T/C (second compound 10 µM, first compound 0.949 µM) of 1.97% and a viability, T/C (second compound 10 µM, first compound 3 µM) of 1.44%.
